Measurements as given in the NIST ThermoML archive (doi:10.1016/j.tca.2013.12.015).
± gives the expanded uncertainty stated by the source.

Test: mn = molality of the nth substance listed, in mol/kg
Conditions: 101 kPa, Liquid; for speed of sound: Single path-length method; for mass density: Vibrating tube method

CCOC(=O)CC(C)=O [ethyl 3-oxobutanoate] + O
Conditions | mass density, 288.15 K [kg/m3] | mass density, 293.15 K [kg/m3] | mass density, 298.15 K [kg/m3] | mass density, 303.15 K [kg/m3] | mass density, 308.15 K [kg/m3] | speed of sound, 288.15 K [m/s] | speed of sound, 293.15 K [m/s] | speed of sound, 298.15 K [m/s] | speed of sound, 303.15 K [m/s] | speed of sound, 308.15 K [m/s]
m1 = 0.076 | 1000.05 ± 0.41 | 999.128 ± 0.41 | 997.91 ± 0.41 | 996.474 ± 0.41 | 994.809 ± 0.41 | 1472.6 ± 4.2 | 1487.8 ± 4.2 | 1501.3 ± 4.2 | 1513 ± 4.2 | 1523.1 ± 4.2
m1 = 0.1625 | 1001.1 ± 0.41 | 1000.13 ± 0.41 | 998.838 ± 0.41 | 997.358 ± 0.41 | 995.64 ± 0.41 | 1479.2 ± 4.2 | 1493.6 ± 4.2 | 1506.4 ± 4.2 | 1517.4 ± 4.2 | 1526.9 ± 4.2
m1 = 0.2495 | 1002.14 ± 0.41 | 1001.1 ± 0.41 | 999.76 ± 0.41 | 998.22 ± 0.41 | 996.445 ± 0.41 | 1485.5 ± 4.2 | 1499.2 ± 4.2 | 1511.2 ± 4.2 | 1521.6 ± 4.2 | 1530.4 ± 4.2
m1 = 0.3767 | 1003.62 ± 0.41 | 1002.48 ± 0.41 | 1001.05 ± 0.41 | 999.44 ± 0.41 | 997.59 ± 0.41 | 1494.1 ± 4.2 | 1506.7 ± 4.2 | 1517.7 ± 4.2 | 1527.1 ± 4.2 | 1535 ± 4.2
m1 = 0.4725 | 1004.7 ± 0.41 | 1003.48 ± 0.41 | 1002 ± 0.41 | 1000.32 ± 0.41 | 998.41 ± 0.41 | 1500 ± 4.2 | 1511.7 ± 4.2 | 1522 ± 4.2 | 1530.8 ± 4.2 | 1538.1 ± 4.2
m1 = 0.5324 | 1005.38 ± 0.42 | 1004.1 ± 0.41 | 1002.58 ± 0.41 | 1000.86 ± 0.41 | 998.9 ± 0.41 | 1503.4 ± 4.2 | 1514.7 ± 4.2 | 1524.5 ± 4.2 | 1532.9 ± 4.2 | 1539.8 ± 4.2
m1 = 0.6848 | 1007.03 ± 0.42 | 1005.6 ± 0.42 | 1004 ± 0.41 | 1002.18 ± 0.41 | 1000.12 ± 0.41 | 1511.6 ± 4.2 | 1521.7 ± 4.2 | 1530.5 ± 4.2 | 1537.8 ± 4.2 | 1543.7 ± 4.2
m1 = 0.7843 | 1008.1 ± 0.42 | 1006.56 ± 0.42 | 1004.9 ± 0.41 | 1003.01 ± 0.41 | 1000.9 ± 0.41 | 1516.3 ± 4.2 | 1525.7 ± 4.2 | 1533.7 ± 4.2 | 1540.4 ± 4.2 | 1545.8 ± 4.2
m1 = 0.9019 | 1009.31 ± 0.42 | 1007.65 ± 0.42 | 1005.93 ± 0.42 | 1003.94 ± 0.41 | 1001.76 ± 0.41 | 1521.4 ± 4.2 | 1529.9 ± 4.2 | 1537.2 ± 4.2 | 1543.1 ± 4.2 | 1547.8 ± 4.2

O [water] + COC(=O)CC(C)=O
Conditions | mass density [kg/m3]
308.15 K, m2 = 0 | 994.062 ± 0.41

O [water] + CCCCn1cc[n+](C)c1.[Br-]
Conditions | mass density [kg/m3]
308.15 K, m2 = 0 | 994.062 ± 0.41
